Measured values: patent US20250326744A1, “PIPERAZINE DERIVATIVE OR SALT THEREOF, AND PHARMACEUTICAL COMPOSITION” (priority 2022, published 2025)
Structures can show the parent of a compound that is named as a salt.

How the values were obtained:
mexB (PA) strain = assay: Combinational effect with antibacterial agent against Pseudomonas aeruginosa (Test Examples 2 and 4): mexB (PA) strain with LVFX, TC or AZT at 1/4 MIC, EC99; type: cell-based; conditions: for EC99, combinational effect with AZT, mexB (PA) / EC99, combinational effect with LVFX, mexB (PA) / EC99, combinational effect with TC, mexB (PA): mexB (PA) strain, Test Example 4; for EC99, combinational effect with AZT, mexB (PA) / EC99, mexB (PA), AZT: combined with AZT at 1/4 MIC; for EC99, combinational effect with LVFX, mexB (PA) / EC99, mexB (PA), LVFX: combined with LVFX at 1/4 MIC; for EC99, combinational effect with TC, mexB (PA) / EC99, mexB (PA), TC: combined with TC at 1/4 MIC; for EC99, mexB (PA), AZT / EC99, mexB (PA), LVFX / EC99, mexB (PA), TC: Table 52, Test Example 2, 16 to 20 hours culture, OD595
Summary of the method: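 EC99 denotes the minimum test-compound concentration (range 0–800 μM) that suppresses ≥99% of growth, measured by OD595, when combined with ¼ MIC levofloxacin (LVFX), tetracycline or aztreonam. The efflux-pump mutant mexB (PA), expressing mainly MexAB-OprM, was inoculated at 10^4–5 CFU/well in CAMHB for 16–20 h.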

S-3769 strain = assay: Combinational effect with antibacterial agent against Pseudomonas aeruginosa (Test Examples 2 and 4): S-3769 strain with AMK or GM at 1/4 MIC, EC99; type: cell-based; conditions: for EC99, combinational effect with AMK, S-3769 strain / EC99, S-3769 strain, AMK: combined with AMK at 1/4 MIC; for EC99, combinational effect with AMK, S-3769 strain / EC99, combinational effect with GM, S-3769 strain: Test Example 4; for EC99, combinational effect with GM, S-3769 strain / EC99, S-3769 strain, GM: combined with GM at 1/4 MIC; for EC99, S-3769 strain, AMK / EC99, S-3769 strain, GM: Table 52, Test Example 2, 16 to 20 hours culture, OD595
Summary of the method: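 EC99, the lowest test-compound concentration inhibiting growth by ≥99% (OD595), was measured with aminoglycoside AMK or GM held at ¼ MIC. Strain S-3769, a MexY-overexpressing clinical isolate, was cultured in CAMHB at 10^4 to 5 CFU/well for 16–20 h; compound range 0–800 μM.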

Structure (SMILES) | EC99, combinational effect with AZT, mexB (PA) (mexB (PA) strain) | EC99, combinational effect with LVFX, mexB (PA) (mexB (PA) strain) | EC99, combinational effect with TC, mexB (PA) (mexB (PA) strain) | EC99, combinational effect with AMK, S-3769 strain (S-3769 strain) | EC99, combinational effect with GM, S-3769 strain (S-3769 strain) | EC99, mexB (PA), AZT (mexB (PA) strain) | EC99, mexB (PA), LVFX (mexB (PA) strain) | EC99, mexB (PA), TC (mexB (PA) strain) | EC99, S-3769 strain, AMK (S-3769 strain) | EC99, S-3769 strain, GM (S-3769 strain)
CCSc1cc(F)ccc1CN1CCN(C(=O)[C@H](N)C2CCN(CCc3cc(Cl)ccc3-c3cccc(F)c3)CC2)CC1 [Example 554, Hydrobromide of (R)-2-amino-2-(1-(2-(4-chloro-3′-fluoro-[1,1-biphenyl]-2-yl)ethyl)piperidin-4-yl)-1-(4-(2-(ethylthio)-4-fluorobenzyl)piperazin-1-yl)ethan-1-one] | S (EC99≤12.5 μM) | S (EC99≤12.5 μM) | S (EC99≤12.5 μM) | A (12.5 μM<EC99≤25 μM) | S (EC99≤12.5 μM) | – | – | – | – | –
CCOc1cccc(F)c1CN1CCN(C(=O)[C@H](N)C2CCN(CCc3cc(Cl)ccc3-c3cc(O)cc(Cl)c3)CC2)CC1 [Example 584, (R)-2-amino-2-(1-(2-(3′,4-dichloro-5′-hydroxy-[1,1′-biphenyl]-2-yl)ethyl)piperidin-4-yl)-1-(4-(2-ethoxy-6-fluorobenzyl)piperazin-1-yl)ethan-1-one] | S (EC99≤12.5 μM) | S (EC99≤12.5 μM) | S (EC99≤12.5 μM) | S (EC99≤12.5 μM) | S (EC99≤12.5 μM) | – | – | – | – | –
CCOc1cccc(F)c1CN1CCN(C(=O)[C@H](N)C2CCN(CCc3cc(Cl)ccc3-c3ccoc3)CC2)CC1 [Example 547, Hydrobromide of (R)-2-amino-2-(1-(5-chloro-2-(furan-3-yl)phenethyl)piperidin-4-yl)-1-(4-(2-ethoxy-6-fluorobenzyl)piperazin-1-yl)ethan-1-one] | B (25 μM<EC99≤100 μM) | B (25 μM<EC99≤100 μM) | C (100 μM<EC99) | S (EC99≤12.5 μM) | S (EC99≤12.5 μM) | – | – | – | – | –
CCOc1cccc(F)c1CN1CCN(C(=O)[C@H](N)C2CCN(CCc3csc4ccccc34)CC2)CC1 [Example 150, Hydrobromide of (R)-2-amino-2-(1-(2-(benzo[b]thiophen-3-yl)ethyl)piperidin-4-yl)-1-(4-(2-ethoxy-6-fluorobenzyl)piperazin-1-yl)ethan-1-one] | – | – | – | – | – | B (25 μM<EC99≤100 μM) | C (100 μM<EC99) | B (25 μM<EC99≤100 μM) | S (EC99≤12.5 μM) | S (EC99≤12.5 μM)
CCOc1cccc(F)c1CN1CCN(C(=O)[C@H](N)C2CCN(CCc3cc(Cl)ccc3-c3cccc(C#N)c3)CC2)CC1 [Example 65, Hydrobromide of (R)-2′-(2-(4-(1-amino-2-(4-(2-ethoxy-6-fluorobenzyl)piperazin-1-yl)-2-oxoethyl)piperidin-1-yl)ethyl)-4′-chloro-[1,1′-biphenyl]-3-carbonitrile] | – | – | – | – | – | B (25 μM<EC99≤100 μM) | C (100 μM<EC99) | B (25 μM<EC99≤100 μM) | A (12.5 μM<EC99≤25 μM) | A (12.5 μM<EC99≤25 μM)
CSc1ccccc1CN1CCN(C(=O)[C@H](N)C2CCN(CCc3cc(Cl)ccc3-c3cc(N)cc(F)c3)CC2)CC1 [Example 564, Hydrobromide of (R)-2-amino-2-(1-(2-(3′-amino-4-chloro-5′-fluoro-[1,1-biphenyl]-2-yl)ethyl)piperidin-4-yl)-1-(4-(2-(methylthio)benzyl)piperazin-1-yl)ethan-1-one] | S (EC99≤12.5 μM) | S (EC99≤12.5 μM) | S (EC99≤12.5 μM) | B (25 μM<EC99≤100 μM) | B (25 μM<EC99≤100 μM) | – | – | – | – | –
CCOc1cccc(F)c1CN1CCN(C(=O)[C@H](N)C2CCN(CCc3cc(Cl)ccc3-c3ccccc3)CC2)CC1 [Example 137, (R)-2-amino-2-(1-(2-(4-chloro-[1,1′-biphenyl]-2-yl)ethyl)piperidin-4-yl)-1-(4-(2-ethoxy-6-fluorobenzyl)piperazin-1-yl)ethan-1-one] | – | – | – | – | – | S (EC99≤12.5 μM) | A (12.5 μM<EC99≤25 μM) | A (12.5 μM<EC99≤25 μM) | S (EC99≤12.5 μM) | S (EC99≤12.5 μM)
CCOc1cccc(F)c1CN1CCN(C(=O)[C@H](N)C2CCN(CCc3cc(Cl)ccc3-c3cn[nH]c3)CC2)CC1 [Example 502, Hydrobromide of (R)-2-amino-2-(1-(S-chloro-2-(1H-pyrazol-4-yl)phenethyl)piperidin-4-yl)-1-(4-(2-ethoxy-6-fluorobenzyl)piperazin-1-yl)ethan-1-one] | C (100 μM<EC99) | B (25 μM<EC99≤100 μM) | B (25 μM<EC99≤100 μM) | S (EC99≤12.5 μM) | S (EC99≤12.5 μM) | – | – | – | – | –
CCSc1cc(F)ccc1CN1CCN(C(=O)[C@H](N)C2CCN(CCc3cc(Cl)ccc3-c3ccccc3)CC2)CC1 [Example 30, (R)-2-amino-2-(1-(2-(4-chloro-[1,1′-biphenyl]-2-yl)ethyl)piperidin-4-yl)-1-(4-(2-(ethylthio)-4-fluorobenzyl)piperazin-1-yl)ethan-1-one] | – | – | – | – | – | S (EC99≤12.5 μM) | S (EC99≤12.5 μM) | S (EC99≤12.5 μM) | S (EC99≤12.5 μM) | S (EC99≤12.5 μM)
N[C@@H](C(=O)N1CCN(Cc2cccc3c2OCO3)CC1)C1CCN(CCc2cc(Cl)ccc2-c2ccccc2)CC1 [Example 36, Hydrobromide of (R)-2-amino-1-(4-(benzo[d][1,3]dioxol-4-ylmethyl)piperazin-1-yl)-2-(1-(2-(4-chloro-[1,1′-biphenyl]-2-yl)ethyl)piperidin-4-yl) ethan-1-one] | – | – | – | – | – | B (25 μM<EC99≤100 μM) | C (100 μM<EC99) | B (25 μM<EC99≤100 μM) | B (25 μM<EC99≤100 μM) | B (25 μM<EC99≤100 μM)
CCOc1ccncc1CN1CCN(C(=O)[C@H](N)C2CCN(CCc3cc(Cl)ccc3-c3ccccc3)CC2)CC1 [Example 512, Hydrobromide of (R)-2-amino-2-(1-(2-(4-chloro-[1,1-biphenyl]-2-yl)ethyl)piperidin-4-yl)-1-(4-((4-ethoxypyridin-3-yl)methyl)piperazin-1-yl)ethan-1-one] | B (25 μM<EC99≤100 μM) | B (25 μM<EC99≤100 μM) | B (25 μM<EC99≤100 μM) | A (12.5 μM<EC99≤25 μM) | A (12.5 μM<EC99≤25 μM) | – | – | – | – | –
N[C@@H](C(=O)N1CCN(Cc2cccc3cccnc23)CC1)C1CCN(CCc2cc(Cl)ccc2-c2ccccc2)CC1 [Example 533, Hydrobromide of (R)-2-amino-2-(1-(2-(4-chloro-[1,1-biphenyl]-2-yl)ethyl)piperidin-4-yl)-1-(4-(quinolin-8-ylmethyl)piperazin-1-yl)ethan-1-one] | B (25 μM<EC99≤100 μM) | A (12.5 μM<EC99≤25 μM) | A (12.5 μM<EC99≤25 μM) | A (12.5 μM<EC99≤25 μM) | A (12.5 μM<EC99≤25 μM) | – | – | – | – | –
